Laboratory results taken from DBAASP.
In brackets after ≈: the same amount, converted by molar mass. Blank lines part the entries; values can stand above or below the compound they belong to.

Experiments:
Assay in all cases: ≥ marks a high value that may be exact or a test limit, other limits are often not marked, values filed in µg/mL are converted to µM
[1] = test system: Candida albicans ATCC 90028
[2] = test system: Enterobacter cloacae HNTCC 53001
[3] = test system: Enterococcus faecalis ATCC 29212
[4] = test system: Escherichia coli ATCC 25922
[5] = test system: Klebsiella pneumoniae KK3 9904
[6] = test system: Proteus mirabilis ATCC 25933
[7] = test system: Pseudomonas aeruginosa ATCC 27853
[8] = test system: Staphylococcus aureus NCTC 8325
[9] = test system: Staphylococcus epidermidis RP62A
Bacillus subtilis 168 = test system: Bacillus subtilis 168
[10] = test system: Candida albicans F7-39/IDE99
Escherichia coli B = test system: Escherichia coli B
[11] = test system: Micrococcus luteus CCM 144
Pseudomonas aeruginosa = test system: Pseudomonas aeruginosa
Staphylococcus aureus = test system: Staphylococcus aureus
Aspergillus fumigatus = test system: Aspergillus fumigatus
[12] = test system: Streptococcus gordonii ATCC 10558
[13] = test system: Streptococcus mutans GS-5
[14] = test system: Streptococcus sanguinis ATCC 49295
Botrytis cinerea = test system: Botrytis cinerea
[15] = test system: Candida albicans ATCC 10231
[16] = test system: Escherichia coli ATCC 11775
[17] = test system: Staphylococcus aureus ATCC 12600
[18] = test system: Corynebacterium xerosis C875
Escherichia coli DC2 = test system: Escherichia coli DC2
Escherichia coli UB1005 = test system: Escherichia coli UB1005
[19] = test system: Staphylococcus epidermidis C621
Bacillus subtilis = test system: Bacillus subtilis
Escherichia coli = test system: Escherichia coli
Proteus vulgaris = test system: Proteus vulgaris
Salmonella typhimurium = test system: Salmonella typhimurium
[20] = test system: Staphylococcus epidermidis
Streptococcus pyogenes = test system: Streptococcus pyogenes
Candida albicans = test system: Candida albicans

SMILES: CC[C@H](C)[C@H](NC(=O)CNC(=O)[C@H](CCC(N)=O)NC(=O)[C@H](Cc1ccccc1)NC(=O)[C@@H](NC(=O)[C@H](CCCCN)NC(=O)[C@H](CCCCN)NC(=O)[C@H](CC(C)C)NC(=O)[C@H](C)NC(=O)[C@H](CCCCN)NC(=O)[C@H](CC(C)C)NC(=O)CN)C(C)C)C(=O)N[C@@H](Cc1cnc[nH]1)C(=O)N[C@@H](CCCCN)C(=O)N[C@@H](C)C(=O)N[C@H](C(=O)N[C@@H](CCCCN)C(=O)N[C@@H](CC(C)C)C(=O)N[C@H](C(=O)N[C@@H](CC(N)=O)C(=O)N[C@@H](CC(N)=O)C(=O)N[C@@H](Cc1cnc[nH]1)C(=O)N[C@H](C(=O)N[C@@H](CCC(N)=O)C(=O)O)C(C)C)[C@@H](C)CC)[C@@H](C)CC [GLKALKKVFQGIHKAIKLINNHVQ]
- MIC [1]: ≥ 80 µM
- MIC [2]: 10 µM (≈ 27 µg/mL)
- MIC [3]: > 80 µM
- MIC [4]: 5 µM (≈ 13.5 µg/mL)
- MIC [5]: 5 µM (≈ 13.5 µg/mL)
- MIC [6]: ≥ 80 µM
- MIC [7]: 10 µM (≈ 27 µg/mL)
- MIC [8]: ≥ 40 µM
- MIC [9]: 20 µM (≈ 54 µg/mL)

SMILES: CC[C@H](C)[C@H](NC(=O)[C@H](CC(C)C)NC(=O)[C@H](CCCCN)NC(=O)[C@@H](NC(=O)[C@@H](NC(=O)[C@H](Cc1cnc[nH]1)NC(=O)[C@@H]1CCCN1C(=O)[C@H](CC(C)C)NC(=O)[C@@H](NC(=O)[C@H](CCCCN)NC(=O)[C@H](C)NC(=O)[C@H](CC(C)C)NC(=O)[C@H](CC(C)C)NC(=O)[C@H](CCCCN)NC(=O)[C@H](C)NC(=O)[C@H](CCSC)NC(=O)CN)C(C)C)C(C)C)C(C)C)C(=O)N[C@@H](CCCCN)C(=O)O [GMAKLLAKVLPHVVKLIK]
- MIC (Bacillus subtilis 168): 1.3 µM (≈ 2.55 µg/mL)
- MIC [10]: 13.1 µM (≈ 25.7 µg/mL)
- MIC (Escherichia coli B): 1.5 µM (≈ 2.94 µg/mL)
- MIC [11]: 0.8 µM (≈ 1.57 µg/mL)
- MIC (Pseudomonas aeruginosa): 17.5 µM (≈ 34.3 µg/mL)
- MIC (Staphylococcus aureus): 2.7 µM (≈ 5.29 µg/mL)

SMILES: CC(C)[C@H](NC(=O)[C@H](CO)NC(=O)[C@H](CCCN=C(N)N)NC(=O)[C@H](CCCN=C(N)N)NC(=O)[C@H](CCCN=C(N)N)NC(=O)[C@H](CCCN=C(N)N)NC(=O)CN)C(=O)N[C@@H](CCC(N)=O)C(=O)N[C@@H](Cc1c[nH]c2ccccc12)C(=O)N[C@@H](CS)C(=O)N[C@@H](C)C(=O)O [GRRRRSVQWCA]
- MIC (Aspergillus fumigatus): 5 µM (≈ 6.87 µg/mL)
- MIC [3]: 72.8 µM (≈ 100 µg/mL)
- MIC [4]: 18.2 µM (≈ 25 µg/mL)
- MIC [12]: ≥ 46.6 µM
- MIC [13]: ≥ 34.9 µM
- MIC [14]: ≥ 101 µM

SMILES: CC[C@H](C)[C@H](NC(=O)[C@H](CC(=O)O)NC(=O)[C@@H](NC(=O)[C@@H](NC(=O)CN)C(C)C)C(C)C)C(=O)N[C@@H](CC(C)C)C(=O)N[C@@H](CCCCN)C(=O)NCC(=O)N[C@@H](C)C(=O)N[C@@H](C)C(=O)N[C@@H](CCCCN)C(=O)N[C@@H](CC(=O)O)C(=O)N[C@@H](CC(C)C)C(=O)N[C@@H](C)C(=O)NCC(=O)N[C@@H](Cc1c[nH]cn1)C(=O)N[C@@H](CC(C)C)C(=O)N[C@@H](C)C(=O)N[C@H](C(=O)N[C@@H](CCCCN)C(=O)N[C@H](C(=O)N[C@@H](CCSC)C(=O)N[C@@H](CC(N)=O)C(=O)N[C@@H](CCCCN)C(=O)N[C@@H](CC(C)C)C(N)=O)C(C)C)[C@@H](C)O [GVVDILKGAAKDLAGHLATKVMNKL]
- MIC [1]: ≥ 200 µM
- MIC [2]: ≥ 50 µM
- MIC [3]: > 200 µM
- MIC [4]: 50 µM (≈ 128 µg/mL)
- MIC [5]: ≥ 100 µM
- MIC [6]: ≥ 200 µM
- MIC [7]: 100 µM (≈ 256 µg/mL)
- MIC [8]: ≥ 200 µM
- MIC [9]: ≥ 200 µM

SMILES: CC[C@H](C)[C@H](N)C(=O)N[C@@H](CC(N)=O)C(=O)N1CCC[C@H]1C(=O)N[C@@H](CCCCN)C(=O)N[C@@H](CO)C(=O)N[C@H](C(=O)N[C@@H](CCC(N)=O)C(=O)N[C@@H](CO)C(=O)N[C@@H](CC(C)C)C(=O)N[C@@H](CC(C)C)C(N)=O)C(C)C [INPKSVQSLL]
- MIC (Botrytis cinerea): ≥ 200 µM
- MIC [15]: > 200 µM
- MIC [16]: ≥ 200 µM
- MIC [17]: ≥ 200 µM

SMILES: CC[C@H](C)[C@H](NC(=O)[C@H](C)NC(=O)[C@H](C)NC(=O)[C@H](C)NC(=O)[C@H](CCCCN)NC(=O)[C@@H](N)CCCCN)C(=O)N[C@@H](C)C(=O)N[C@@H](C)C(=O)N[C@@H](C)C(=O)N[C@@H](C)C(=O)N[C@@H](C)C(=O)N[C@H](C(=O)N[C@@H](C)C(=O)N[C@@H](C)C(=O)N[C@@H](Cc1c[nH]c2ccccc12)C(=O)N[C@@H](C)C(=O)N[C@@H](C)C(=O)N[C@H](C(=O)N[C@@H](C)C(=O)N[C@@H](C)C(=O)N[C@@H](C)C(=O)N[C@@H](CCCCN)C(=O)N[C@@H](CCCCN)C(=O)N[C@@H](CCCCN)C(=O)N[C@@H](CCCCN)C(N)=O)[C@@H](C)CC)[C@@H](C)CC [KKAAAIAAAAAIAAWAAIAAAKKKK]
- MIC [18]: 0.25 µM (≈ 0.594 µg/mL)
- MIC (Escherichia coli DC2): 16 µM (≈ 38 µg/mL)
- MIC (Escherichia coli UB1005): ≥ 32 µM
- MIC [19]: 4 µM (≈ 9.51 µg/mL)

The next lines start with the values.

- MIC (Bacillus subtilis 168): 1.7 µM (≈ 2.49 µg/mL)
- MIC [10]: 7.3 µM (≈ 10.7 µg/mL)
- MIC (Escherichia coli B): 4 µM (≈ 5.85 µg/mL)
- MIC [11]: 2.2 µM (≈ 3.22 µg/mL)
- MIC (Pseudomonas aeruginosa): 20.8 µM (≈ 30.4 µg/mL)
- MIC (Staphylococcus aureus): 8.7 µM (≈ 12.7 µg/mL)
SMILES: CC[C@H](C)[C@H](NC(=O)[C@H](CCCCN)NC(=O)CNC(=O)[C@H](Cc1c[nH]c2ccccc12)NC(=O)[C@H](CC(N)=O)NC(=O)[C@@H](N)CC(C)C)C(=O)N[C@@H](CC(C)C)C(=O)N[C@@H](CCCCN)C(=O)N[C@@H](Cc1cnc[nH]1)C(=O)N[C@H](C(=O)N[C@H](C(=O)N[C@@H](CCCCN)C(N)=O)[C@@H](C)CC)[C@@H](C)CC [LNWGKILKHIIK]

- MIC (Bacillus subtilis): ≥ 64 µM
- MIC (Escherichia coli): 0.5 µM (≈ 1.17 µg/mL)
- MIC (Proteus vulgaris): 2 µM (≈ 4.67 µg/mL)
- MIC (Pseudomonas aeruginosa): 16 µM (≈ 37.3 µg/mL)
- MIC (Salmonella typhimurium): 0.5 µM (≈ 1.17 µg/mL)
- MIC [20]: ≥ 64 µM
- MIC (Streptococcus pyogenes): ≥ 64 µM
SMILES: CC(C)C[C@H](NC(=O)[C@H](CCCN=C(N)N)NC(=O)[C@@H]1CCCN1C(=O)[C@H](Cc1cnc[nH]1)NC(=O)[C@@H]1CCCN1C(=O)[C@@H]1CCCN1C(=O)[C@H](CCCN=C(N)N)NC(=O)[C@@H]1CCCN1C(=O)[C@@H]1CCCN1C(=O)[C@H](Cc1cnc[nH]1)NC(=O)[C@@H]1CCCN1C(=O)[C@@H]1CCCN1C(=O)[C@H](CCCN=C(N)N)NC(=O)[C@@H]1CCCN1C(=O)[C@@H]1CCCN1C(=O)[C@H](Cc1cnc[nH]1)NC(=O)[C@@H]1CCCN1C(=O)[C@@H]1CCCN1C(=O)[C@H](CCCN=C(N)N)NC(=O)[C@@H]1CCCN1)C(=O)O [PRPPHPPRPPHPPRPPHPRL]

- MIC (Aspergillus fumigatus): ≥ 335 µM
- MIC (Candida albicans): > 671 µM
SMILES: CC(C)C[C@H](NC(=O)[C@H](Cc1ccccc1)NC(=O)[C@@H]1CCCN1C(=O)[C@H](Cc1c[nH]c2ccccc12)NC(=O)[C@H](Cc1c[nH]c2ccccc12)NC(=O)[C@H](Cc1c[nH]c2ccccc12)NC(=O)[C@@H]1CCCN1C(=O)[C@H](Cc1ccccc1)NC(=O)[C@@H](N)CCCN=C(N)N)C(=O)N[C@@H](CCCN=C(N)N)C(=O)O [RFPWWWPFLR]
